The record followed here is patent US9649315B2, “Composition useful for treating disorders related to TRPA1” (HYDRA BIOSCIENCES, INC., priority 2008, dated 2017).

pIC50: −log10 of the molar value.

In assay [1] the target is hTRPA1 channel (Homo sapiens, UniProt O75762). As to the kind of experiment: Inhibition of TRPA1 channel activity. Format: cell-based. Conditions: procedure similar to WO 2007/073505; read-out: IC50 against hTRPA1 channel activity. On the procedure:
Compound 1 was tested using a procedure similar to the procedure outlined in WO 2007/073505.

The subject of assay [2] is formalin-induced pain behavior. In words: Formalin-induced pain behavior in rats. The assay is classed as in vivo, rat. The settings on record: 50 mg/kg oral, one hour prior to intraplantar formalin (3%), observed for 2 minutes following injection. On the procedure: Compound 1 was tested in the formalin-induced pain test reported by Dubuisson et al., Pain 1977 December; 4(2):161-74. The compound was dosed orally in rats (8 animals) at 50 mg/kg, one hour prior to intraplantar formalin (3%) injection. The control group (8 animals) received vehicle (30% Captisol® in water, pH 10). […] The duration of pain behavior in the treated animals was reduced by about 30%, compared to the animals who received vehicle.

The subject of assay [3] is AITC-induced pain behavior. As to the kind of experiment: AITC-induced pain behavior (automated flinch detecting system) in the rat. The assay is classed as in vivo. The settings on record: 50 mg/kg oral gavage. The method, then:
Compound 1 was tested in the automated flinch detecting system described by Yaksh et al., J. Appl. Physiol 90: 2386-2402 (2001). A small metal band was loosely placed around each rat's left hind paw. The fasted rats were dosed (50 mg/kg) via oral gavage with Compound 1 (8 animals) or vehicle (8 animals, 30% Captisol® in water, pH 10). The rats were acclimatized in the test chamber prior to allyl isothiocyanate (AITC) administration. AITC was then injected into the paw of each animal, and the animal was promptly returned to the chamber. The number of paw flinches was monitored for 60 minutes. After 10 minutes, animals receiving vehicle flinched a total of about 350 times, while the treated animals flinched about 200 times. After 60 minutes the animals that had received vehicle prior to AITC administration flinched about 1950 times, while the compound pre-treated animals flinched about 1000 times.

Sequence of hTRPA1 channel (O75762 whole entry): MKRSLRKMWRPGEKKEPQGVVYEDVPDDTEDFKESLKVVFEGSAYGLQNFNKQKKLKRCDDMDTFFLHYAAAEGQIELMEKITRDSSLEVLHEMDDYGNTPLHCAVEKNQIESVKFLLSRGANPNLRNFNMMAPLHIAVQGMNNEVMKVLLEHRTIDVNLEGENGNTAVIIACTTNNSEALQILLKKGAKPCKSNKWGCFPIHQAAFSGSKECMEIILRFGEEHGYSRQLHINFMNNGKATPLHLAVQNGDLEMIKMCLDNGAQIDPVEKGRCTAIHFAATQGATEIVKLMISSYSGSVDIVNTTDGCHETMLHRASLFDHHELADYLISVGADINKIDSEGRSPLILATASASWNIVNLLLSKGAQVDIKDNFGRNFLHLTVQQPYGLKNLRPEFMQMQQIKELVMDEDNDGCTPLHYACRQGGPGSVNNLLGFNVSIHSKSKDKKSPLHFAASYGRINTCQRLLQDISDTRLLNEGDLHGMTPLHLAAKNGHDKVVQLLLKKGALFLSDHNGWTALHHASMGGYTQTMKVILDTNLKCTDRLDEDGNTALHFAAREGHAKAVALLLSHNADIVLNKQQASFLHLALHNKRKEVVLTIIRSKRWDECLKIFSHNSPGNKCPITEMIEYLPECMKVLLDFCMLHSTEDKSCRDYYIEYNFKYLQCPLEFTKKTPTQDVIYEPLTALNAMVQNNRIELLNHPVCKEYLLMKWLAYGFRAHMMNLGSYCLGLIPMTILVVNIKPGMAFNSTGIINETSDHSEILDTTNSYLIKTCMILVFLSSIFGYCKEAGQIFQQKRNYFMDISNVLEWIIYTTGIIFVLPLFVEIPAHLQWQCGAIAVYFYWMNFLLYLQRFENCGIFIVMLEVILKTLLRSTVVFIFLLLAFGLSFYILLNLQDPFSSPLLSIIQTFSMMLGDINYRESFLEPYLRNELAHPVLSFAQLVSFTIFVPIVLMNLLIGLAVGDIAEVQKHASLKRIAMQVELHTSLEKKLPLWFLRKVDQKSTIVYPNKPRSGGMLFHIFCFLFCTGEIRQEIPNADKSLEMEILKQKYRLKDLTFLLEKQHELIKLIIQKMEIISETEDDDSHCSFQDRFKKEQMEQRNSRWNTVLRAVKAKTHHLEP

A word on the pIC50: it is the negative decadic logarithm of the IC50, by convention in mol/L. For `C[C@H]1CCCN1c1ccc(-c2csc(NC(=O)Cn3cnc4c3c(=O)n(C)c(=O)n4C)n2)cc1F` [Compound 1], the negative logarithm of the IC50 (pIC50) in assay [1] was about 8.40. In addition, the “reduction of duration of pain behavior compared to vehicle” value in assay [2] is “about 30%”. Also, the “total number of paw flinches after 10 minutes” value in assay [3] (fasted rats, AITC injected into paw, after 10 minutes (vehicle about 350)) is “about 200 times”. Further, the “total number of paw flinches after 60 minutes” value in assay [3] (fasted rats, AITC injected into paw, after 60 minutes (vehicle about 1950)) is “about 1000 times”. Besides, the “effect on AITC-induced pain behavior” value in assay [3] (rats) is on record as “able to reduce the AITC-induced pain behavior”.
